Test results reported in US9624224B2, “Inhibitors of Bruton's tyrosine kinase” (Pharmacyclics LLC, priority 2013, dated 2017).

How the values were obtained:
Assay type in all cases: biochemical
Lck = Lck (Homo sapiens, UniProt P06239); test: Lck kinase inhibition (in vitro kinase assay)
Method in brief: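 TR-FRET kinase assay at [ATP]=Km^ATP, detected with Eu-anti-pTyr antibody and streptavidin-APC after EDTA quench; 665/615 nm ratio read. Ki(app) fitted across compound concentrations, converted to IC50 via IC50={Ki(app)/(1+[ATP]/Km^ATP)}+[E]total/2; [Lck]total=6 nM.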

Jak3 = target: T1, Jak3 (Homo sapiens, UniProt P52333); test: Jak3 kinase inhibition (in vitro kinase assay)
T1 sequence (P52333 1-1124): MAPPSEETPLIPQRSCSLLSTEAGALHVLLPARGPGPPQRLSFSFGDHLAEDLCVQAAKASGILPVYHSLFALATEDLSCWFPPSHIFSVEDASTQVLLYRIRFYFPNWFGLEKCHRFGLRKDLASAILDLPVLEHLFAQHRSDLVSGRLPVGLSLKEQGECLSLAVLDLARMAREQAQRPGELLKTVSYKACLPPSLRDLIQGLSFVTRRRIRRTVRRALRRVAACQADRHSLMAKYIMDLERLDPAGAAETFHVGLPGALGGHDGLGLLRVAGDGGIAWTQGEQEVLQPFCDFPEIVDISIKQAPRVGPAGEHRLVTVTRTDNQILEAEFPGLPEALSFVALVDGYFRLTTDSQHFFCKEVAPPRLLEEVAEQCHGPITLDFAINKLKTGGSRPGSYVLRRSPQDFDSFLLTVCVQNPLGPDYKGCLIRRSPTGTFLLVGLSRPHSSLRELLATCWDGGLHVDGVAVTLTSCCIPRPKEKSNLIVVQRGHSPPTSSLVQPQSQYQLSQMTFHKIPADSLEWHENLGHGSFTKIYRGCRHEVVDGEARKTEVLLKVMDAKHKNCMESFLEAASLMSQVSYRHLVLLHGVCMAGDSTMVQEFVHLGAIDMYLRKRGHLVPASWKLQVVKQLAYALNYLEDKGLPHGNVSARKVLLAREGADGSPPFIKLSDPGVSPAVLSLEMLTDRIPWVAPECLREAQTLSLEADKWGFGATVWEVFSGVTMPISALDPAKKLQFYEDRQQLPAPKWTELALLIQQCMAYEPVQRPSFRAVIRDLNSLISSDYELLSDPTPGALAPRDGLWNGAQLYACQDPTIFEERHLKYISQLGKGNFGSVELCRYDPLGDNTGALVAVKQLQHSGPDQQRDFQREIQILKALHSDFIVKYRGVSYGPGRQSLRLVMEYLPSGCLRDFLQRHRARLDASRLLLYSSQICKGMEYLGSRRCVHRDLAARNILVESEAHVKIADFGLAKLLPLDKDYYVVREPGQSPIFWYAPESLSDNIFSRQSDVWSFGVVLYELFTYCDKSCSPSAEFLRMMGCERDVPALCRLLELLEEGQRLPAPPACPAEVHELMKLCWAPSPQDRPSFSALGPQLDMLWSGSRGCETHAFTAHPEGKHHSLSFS

BTK = target: T2, BTK (Homo sapiens, UniProt Q06187); test: Btk in vitro inhibitory activity (TR-FRET, mobility shift or radiometric filter binding kinase assay); details: determined using one of the methods outlined in Example 47a, 47b, and 47c
T2 construct: purified from insect cells as a full-length construct containing a N-terminal 6×-His tag; His6 (N); made in house; host or cells: insect cells (baculovirus, Sf21)
T2 sequence (Q06187 whole entry): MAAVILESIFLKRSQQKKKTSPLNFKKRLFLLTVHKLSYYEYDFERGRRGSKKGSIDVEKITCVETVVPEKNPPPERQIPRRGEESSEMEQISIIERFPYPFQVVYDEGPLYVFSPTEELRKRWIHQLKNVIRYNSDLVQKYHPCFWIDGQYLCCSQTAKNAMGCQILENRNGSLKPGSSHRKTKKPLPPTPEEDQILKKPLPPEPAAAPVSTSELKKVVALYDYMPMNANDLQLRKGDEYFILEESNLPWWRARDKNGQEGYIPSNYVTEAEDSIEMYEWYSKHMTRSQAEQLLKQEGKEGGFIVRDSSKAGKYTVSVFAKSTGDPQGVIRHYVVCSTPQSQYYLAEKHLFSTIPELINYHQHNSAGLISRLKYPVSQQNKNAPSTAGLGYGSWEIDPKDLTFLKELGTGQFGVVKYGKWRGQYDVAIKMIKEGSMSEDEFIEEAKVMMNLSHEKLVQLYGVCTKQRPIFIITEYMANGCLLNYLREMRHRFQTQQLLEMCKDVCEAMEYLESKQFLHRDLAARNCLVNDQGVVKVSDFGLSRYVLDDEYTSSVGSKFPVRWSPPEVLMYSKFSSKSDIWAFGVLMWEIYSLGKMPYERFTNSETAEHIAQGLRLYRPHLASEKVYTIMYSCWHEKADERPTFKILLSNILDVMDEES
Method in brief: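 Full-length N-His-tagged human Btk from insect cells, 8 nM, preincubated 15 min with inhibitor and 0.2 mg/mL poly-Glu-Tyr (4:1) in pH 7.5 Hepes/MgCl2 buffer, then 1 μM ATP for 120 min at RT; radiometric P81 filter read-out. Alternatives: TR-FRET at [ATP]=Km (0.5 nM Btk, IC50 from Ki(app)) or mobility-shift PSR with 12-point 3× curves, 4-parameter fit.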

EGFR = EGFR (Homo sapiens, UniProt P00533); test: EGFR kinase inhibition (in vitro kinase assay)
Chain of EGFR (P00533 25-1210, species assumed): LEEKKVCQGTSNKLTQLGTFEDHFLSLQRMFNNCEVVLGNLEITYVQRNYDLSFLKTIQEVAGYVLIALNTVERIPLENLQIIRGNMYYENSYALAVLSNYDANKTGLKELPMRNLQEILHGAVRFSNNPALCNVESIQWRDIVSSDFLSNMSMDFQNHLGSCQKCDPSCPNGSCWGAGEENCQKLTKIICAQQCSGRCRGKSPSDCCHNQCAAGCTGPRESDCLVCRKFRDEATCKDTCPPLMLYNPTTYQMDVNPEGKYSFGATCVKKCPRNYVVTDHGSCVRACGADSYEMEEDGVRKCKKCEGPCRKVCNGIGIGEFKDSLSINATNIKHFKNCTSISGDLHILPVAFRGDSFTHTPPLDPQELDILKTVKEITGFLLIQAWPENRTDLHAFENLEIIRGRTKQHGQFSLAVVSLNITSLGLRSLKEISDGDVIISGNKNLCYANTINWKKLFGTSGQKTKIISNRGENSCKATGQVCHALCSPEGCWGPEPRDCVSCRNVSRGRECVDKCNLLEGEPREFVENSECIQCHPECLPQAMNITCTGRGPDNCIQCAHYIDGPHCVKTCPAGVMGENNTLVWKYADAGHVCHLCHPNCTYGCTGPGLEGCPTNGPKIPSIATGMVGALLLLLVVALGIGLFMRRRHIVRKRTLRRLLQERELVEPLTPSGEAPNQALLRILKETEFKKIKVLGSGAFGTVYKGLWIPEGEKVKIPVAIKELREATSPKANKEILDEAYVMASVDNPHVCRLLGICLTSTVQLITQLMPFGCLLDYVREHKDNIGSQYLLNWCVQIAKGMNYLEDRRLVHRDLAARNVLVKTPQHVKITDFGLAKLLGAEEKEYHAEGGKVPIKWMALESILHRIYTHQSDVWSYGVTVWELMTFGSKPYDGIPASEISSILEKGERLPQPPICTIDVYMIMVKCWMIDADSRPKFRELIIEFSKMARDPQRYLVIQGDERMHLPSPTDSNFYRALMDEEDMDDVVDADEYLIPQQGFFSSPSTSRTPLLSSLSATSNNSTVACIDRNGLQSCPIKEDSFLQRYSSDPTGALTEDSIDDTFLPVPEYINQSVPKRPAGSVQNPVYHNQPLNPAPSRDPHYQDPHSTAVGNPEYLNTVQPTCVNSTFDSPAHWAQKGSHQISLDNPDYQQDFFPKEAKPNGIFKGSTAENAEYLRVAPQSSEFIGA

Chain of Lck (P06239 whole entry, species assumed): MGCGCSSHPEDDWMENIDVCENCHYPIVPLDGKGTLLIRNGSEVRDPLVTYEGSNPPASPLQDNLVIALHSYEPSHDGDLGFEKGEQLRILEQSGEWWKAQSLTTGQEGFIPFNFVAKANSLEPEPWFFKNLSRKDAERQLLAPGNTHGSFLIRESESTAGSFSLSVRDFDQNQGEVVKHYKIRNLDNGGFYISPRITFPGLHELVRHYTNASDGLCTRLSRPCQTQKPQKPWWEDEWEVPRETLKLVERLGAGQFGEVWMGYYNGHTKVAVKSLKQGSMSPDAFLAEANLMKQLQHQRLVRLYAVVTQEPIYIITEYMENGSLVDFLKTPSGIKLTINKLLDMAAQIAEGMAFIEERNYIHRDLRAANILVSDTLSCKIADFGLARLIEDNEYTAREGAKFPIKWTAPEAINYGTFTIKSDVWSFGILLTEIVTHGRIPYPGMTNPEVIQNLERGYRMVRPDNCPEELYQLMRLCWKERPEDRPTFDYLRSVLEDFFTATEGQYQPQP

IC50 (Lck) [µM]	IC50 (Jak3) [µM]	IC50 (BTK) [µM]	IC50 (EGFR) [µM]	SMILES
> 10	> 10	< 0.1	0.1 to 1	Cc1ccnc(NC(=O)c2ccc(-c3nn([C@H]4CC[C@H](NC(=O)/C=C/CN(C)C)CC4)c4ncnc(N)c34)cc2)c1 [Example 28, 4-(4-amino-1-((1,4-trans)-4-((E)-4-(dimethylamino)but-2-enamido)cyclohexyl)-1H-pyrazolo[3,4-d]pyrimidin-3-yl)-N-(4-methylpyridin-2-yl)benzamide]
> 10	> 10	< 0.1	0.1 to 1	Cc1ccnc(NC(=O)c2ccc(-c3nn([C@H]4CC[C@H](NC(=O)/C=C/CN(C)C5CC5)CC4)c4ncnc(N)c34)cc2)c1 [Example 29, 4-(4-amino-1-((1,4-trans)-4-((E)-4-(cyclopropyl(methyl)amino)but-2-enamido)cyclohexyl)-1H-pyrazolo[3,4-d]pyrimidin-3-yl)-N-(4-methylpyridin-2-yl)benzamide]
